Earlier results on 1 compound are cited in US5362498A, “Process for preparing a bioadhesive pharmaceutical dosage form and pharmaceutical dosage form thus prepared” (priority 1990, dated 1994).

The conditions of this data set: metabolite produced by digestive tract absorption of morphinic active principles.

For `CN1CC[C@]23c4c5ccc(O)c4O[C@H]2[C@@H](O[C@@H]2O[C@H](C(=O)O)[C@@H](O)[C@H](O)[C@H]2O)C=C[C@H]3[C@H]1C5` [morphine 6-glucuronide], the relative potency is recorded as 1.5 times.
